In brackets after ≈: the same amount, converted by molar mass.
How the values were obtained:
[1] = clinical; conditions: human, in vivo
Experimental: All included patients were ≥ 18 years old, diagnosed with an advanced stage breast cancer, and provided written informed consent. Blood samples taken at routinely scheduled visits plus extensive collection over a 10-12 h dosing interval were gathered during the study. Collected samples were centrifuged, and plasma was stored at -80 °C allowing its conservation until drug level measurements. […] Moreover, information was reconciled with data collected in the randomized controlled medication adherence study in a subset of patients. […] The chromatographic separation was performed on a column XSelect HSS T3 2.1 × 75 mm, 3.5 μm (Waters®, Milford, MA, USA) using a mobile phase composed of a gradient of ammonium acetate 2 mM (+0.1 formic acid) and acetonitrile (+0.1 formic acid). […] The method was validated over the clinically relevant concentration range, i.e., from 0.5 to 500 ng/mL. […] One- and two-compartment models with first- or zero-order absorption, potentially including an absorption lag time were tested. Inter-individual variability was modeled exponentially and tested sequentially on all parameters. Additive, proportional, and mixed models for residual error were compared. Potential associations between post hoc individual parameter estimates and demographic or clinical characteristics were first visually explored and then tested in the model. […] The characteristics available for testing their effect on PD parameters were as follows: age, body weight, ALK, BILT, gamma-glutamyltransferase (GGT), albumin, AST, ALT, eGFR, association with fulvestrant, chemotherapy in the previous treatment line, and POCT measurement. […] Baseline values of continuous covariates were tested on the base ANC parameter while time-varying values were tested on Emax. Continuous covariates were centered and normalized on their median value and tested by linear or allometric functions as appropriate. Missing data were imputed to the population median value. Categorical covariates were coded as 0 or 1, and missing data were first treated as an additional category and then regrouped according to their parameter estimates. The first-order conditional estimation method with interaction (FOCEI) was used for model fitting with the ADVAN4 TRANS4 subroutine for the PK model and the ADVAN6 subroutine defining a system of ordinary differential equations for the PK/PD model. Models were selected based on the improvement in standard goodness-of-fit plots, precision of parameter estimates and eta shrinkage. […] The covariate analysis was performed by forward inclusion (significant level for ΔOFV ≤ -3.84, p ≤ 0.05) followed by backward deletion (significant level for ΔOFV ≥ 7.88, p ≤ 0.005). The final PK/PD model was evaluated with a non-parametric bootstrap using 502 replicates of the initial dataset. The generated median parameters and their CI95% were compared to the final model estimates. In addition, prediction-corrected visual predictive checks (pc-VPCs) were performed to diagnose potential model misspecification by visually comparing observed concentrations with prediction percentiles.

[2] = tested on: absolute neutrophil count (ANC); assay: Semi-mechanistic PK/PD neutropenia model (exposure–toxicity relationship, ANC time course); assay type: in vivo, human; conditions: for Emax (maximum estimated drug effect on kprol) / ωEC50 (between-subject variability) / ωEmax (between-subject variability): final PK/PD model
Experimental: ANC was directly retrieved from the patients' medical records up to the date of the last PK observation. The most recent ANC value in the three months before palbociclib initiation was retained as the base value. Blood sampling for ANC measurement was performed either concomitantly or separately from that for palbociclib quantification. The proliferation, maturation, and homeostatic regulation of neutrophils were mimicked by a series of 5 compartments, as described in the model developed by Friberg et al.. This structural model was directly applied to our data. The first compartment represented stem cells and proliferating precursor cells in the bone marrow with the systematic renewal of proliferative cells' production modeled by the rate constant kprol. This compartment was followed by three transit compartments to account for the delay between proliferation and maturation according to the first-order rate constant ktr, defined as n+1/MTT , where MTT is the mean transit time of neutrophils. The last compartment characterized the blood circulation with the neutrophil elimination rate constant kcirc. The rate constants kprol, ktr, and […] assumed to be equal, as in the original model. […] ANCs were log-transformed before the analysis, and an additive error on the log scale was used to describe residual variability. Owing to long computation runtime, neutropenia model development was first performed by fixing the PK parameters that were estimated together with PD parameters in the final model. Potential associations between post hoc individual parameter estimates and demographic or clinical characteristics were first visually explored and then tested in the model. […] The characteristics available for testing their effect on PD parameters were as follows: age, body weight, ALK, BILT, gamma-glutamyltransferase (GGT), albumin, AST, ALT, eGFR, association with fulvestrant, chemotherapy in the previous treatment line, and POCT measurement. […] Despite high inter-individual variability on EC50, covariates were not tested on this parameter and were substituted by covariates on Emax as recommended in good practices for exposure-response analyses. Baseline values of continuous covariates were tested on the base ANC parameter while time-varying values were tested on Emax. Continuous covariates were centered and normalized on their median value and tested by linear or allometric functions as appropriate. Missing data were imputed to the population median value. Categorical covariates were coded as 0 or 1, and missing data were first treated as an additional category and then regrouped according to their parameter estimates. The first-order conditional estimation method with interaction (FOCEI) was used for model fitting with the ADVAN4 TRANS4 subroutine for the PK model and the ADVAN6 subroutine defining a system of ordinary differential equations for the PK/PD model. Models were selected based on the improvement in standard goodness-of-fit plots, precision of parameter estimates and eta shrinkage. […] The covariate analysis was performed by forward inclusion (significant level for ΔOFV ≤ -3.84, p ≤ 0.05) followed by backward deletion (significant level for ΔOFV ≥ 7.88, p ≤ 0.005). The final PK/PD model was evaluated with a non-parametric bootstrap using 502 replicates of the initial dataset. The generated median parameters and their CI95% were compared to the final model estimates. In addition, prediction-corrected visual predictive checks (pc-VPCs) were performed to diagnose potential model misspecification by visually comparing observed concentrations with prediction percentiles.

[3] = Exposure–response relationship: Cox proportional hazards models on progression-free survival; assay type: in vivo, human; conditions: human, plasma, oral; model-predicted, including OFF-treatment periods; read-out: median AUCcum90 (mean cumulative AUC0-24 over 90 days)
Text: (§1) To consider the time lapse between radiologic exams (i.e., every 3 months), mean cumulative AUC0-24 over 90 days (AUCcum90) was then predicted. This variable was selected as the exposure metric to be tested as a time-dependent covariate for its influence on PFS. In consideration of the limited number of patients progressing (n = 29), we only included age at treatment initiation as an additional covariate, with an interaction term between age and exposure. Cox proportional hazards models were estimated in R (2021) to evaluate the effect of these covariates on PFS (significance level: p ≤ 0.05).

[4] = tested on: metastatic breast cancer; assay: as above; assay type: in vivo, human; conditions: 29 of 44 patients progressed
Text: as §1

[5] = tested on: absolute neutrophil count (ANC); conditions: cited from earlier work
[6] = co-administration of PPIs in fasting conditions, healthy volunteers; cited from earlier work
[7] = based on PK/PD modeling; cited from earlier work
[8] = tested on: absolute neutrophil count (ANC); conditions: final PK/PD model, FIX at literature value; cited from earlier work
[9] = bootstrap median (n = 502 samples)

CC(=O)c1c(C)c2cnc(Nc3ccc(N4CCNCC4)cn3)nc2n(C2CCCC2)c1=O [palbociclib, Palbociclib]
ALAG (absorption lag time) [1]: 2.0 h | ALAG (absorption lag-time) [1]: 1.9 h | CL (clearance) [1]: 68 L/h | CLIPP,no food (clearance with concomitant coadministration of IPP under fasting conditions) [1]: 106 L/h | Vc (central volume of distribution) [1]: 2730 L | Vc/F (apparent central volume of distribution) [1]: 2778 L | clearance ([1]; CL (clearance)): 1130 mL/min | clearance ([1]; CLIPP,no food (clearance with concomitant coadministration of IPP under fasting conditions)): 1770 mL/min | Vd ([1]; Vc (central volume of distribution)): 2700 L | Vd/F ([1]; Vc/F (apparent central volume of distribution)): 2800 L | EC50 ([2]; Homo sapiens, Neutrophil, base model, attributed to data sparseness, not retained, read-out: estimated EC50 (Emax model, before fixing)): 0.0088 µg/mL (≈ 0.0197 µM) | Emax (maximum estimated drug effect on kprol) [2, 9]: 0.22 | ωEC50 (between-subject variability) [2, 9]: 91 CV% | ωEmax (between-subject variability) [2, 9]: 16 CV% | Emax (maximum estimated drug effect on kprol) ([2]; estimate): 0.22 | ωEC50 (between-subject variability) ([2]; estimate): 93 CV% | ωEmax (between-subject variability) ([2]; estimate): 15 CV% | mean cumulative AUC0-24 over 90 days (AUCcum90) [3]: 1140 ng·h/mL | median PFS [4]: 17 months | EC50 literature value [5]: 0.0401 µg/mL (≈ 0.0896 µM) | decrease in AUC [6]: 62% | upper limit for trough concentration to avoid severe neutropenia [7]: 100 ng/mL | EC50 (palbociclib concentration corresponding to 50% of the maximum effect) [8]: 0.0401 µg/mL
